Data from PubChem BioAssay AID651650 (Sanford-Burnham Center for Chemical Genomics, 2012).
The source made the active and inactive calls.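 How the source made its calls: active means mean IC50 below 20 µM in each of the two panels, so potent in both; inactive means the rest.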

Target: Neuropilin-1 (Homo sapiens) (UniProt O14786)
Assay: blockers of CendR peptide binding to NRP-1 – biochemical, FP and AlphaScreen panel, dose response (AID 651650)
Settings: NRP-1 b1b2 / RPARPAR peptide binding, FP or AlphaScreen
[1] = AlphaScreen, run 1, individual panel run IC50
[2] = FP, run 1, individual panel run IC50
[3] = FP, run 2, individual panel run IC50

Sequence of Neuropilin-1 (Homo sapiens) (O14786 whole entry, looked up): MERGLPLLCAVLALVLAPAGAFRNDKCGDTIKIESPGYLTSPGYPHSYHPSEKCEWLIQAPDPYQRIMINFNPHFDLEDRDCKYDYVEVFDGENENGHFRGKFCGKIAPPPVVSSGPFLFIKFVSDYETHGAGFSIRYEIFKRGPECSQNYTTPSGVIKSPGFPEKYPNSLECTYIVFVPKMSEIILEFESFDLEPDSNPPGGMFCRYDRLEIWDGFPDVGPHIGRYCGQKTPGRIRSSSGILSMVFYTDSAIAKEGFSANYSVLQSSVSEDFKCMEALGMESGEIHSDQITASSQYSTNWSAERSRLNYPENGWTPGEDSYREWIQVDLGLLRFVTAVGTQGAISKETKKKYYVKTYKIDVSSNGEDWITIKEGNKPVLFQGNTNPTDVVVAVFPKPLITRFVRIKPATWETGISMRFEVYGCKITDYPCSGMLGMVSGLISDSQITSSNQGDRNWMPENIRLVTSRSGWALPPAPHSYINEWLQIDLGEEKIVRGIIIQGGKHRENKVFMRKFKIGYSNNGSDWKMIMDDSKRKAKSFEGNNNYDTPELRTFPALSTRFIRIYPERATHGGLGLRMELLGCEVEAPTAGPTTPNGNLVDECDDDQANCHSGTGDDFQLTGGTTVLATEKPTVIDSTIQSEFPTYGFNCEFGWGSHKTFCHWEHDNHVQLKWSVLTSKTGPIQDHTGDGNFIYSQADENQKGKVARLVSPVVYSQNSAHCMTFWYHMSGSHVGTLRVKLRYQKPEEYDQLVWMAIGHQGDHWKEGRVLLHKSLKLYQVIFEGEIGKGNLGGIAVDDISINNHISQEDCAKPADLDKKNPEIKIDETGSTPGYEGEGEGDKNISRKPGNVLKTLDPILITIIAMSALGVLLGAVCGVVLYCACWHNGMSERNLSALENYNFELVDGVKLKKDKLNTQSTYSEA

| SMILES | IC50 (AlphaScreen, mean of runs) | IC50 [1] [µM] | IC50 (FP, mean of runs) | IC50 [2] [µM] | IC50 [3] [µM] |
| --- | --- | --- | --- | --- | --- |
| NNc1ncnc2c1cnn2-c1ccccc1 | > 100 µM (inactive) | > 100 | > 95 µM (inactive) | > 95 | > 95 |
| Cc1cc(C)n(-c2nnc3n2N=C(c2c[nH]c4ccccc24)CS3)n1 | > 100 µM (inactive) | > 100 | > 95 µM (inactive) | > 95 | > 95 |
| Cc1cc(S(=O)(=O)NC2CCCCC2)ccc1OCC(=O)N1CCOCC1 | 15.2 µM | 15.2 | > 95 µM (inactive) | > 95 | > 95 |
| CN(C)Cc1cc(C(F)(F)F)ccc1C(O)(c1ccccc1)c1ccccc1 | > 100 µM (inactive) | > 100 | > 95 µM (inactive) | > 95 | > 95 |
| CCC(=O)Nc1nc2nc(-c3ccccc3)cc(-c3ccccc3)n2n1 | > 100 µM (inactive) | > 100 | > 95 µM (inactive) | > 95 | > 95 |
| NC(=O)c1c(NC(=O)C(=O)N2CCOCC2)sc2c1CCCC2 | > 100 µM (inactive) | > 100 | > 95 µM (inactive) | > 95 | > 95 |
| NCCCC[C@H]1CN=C(N)N1CCC12CC3CC(CC(C3)C1)C2 | inactive | 50.2 | > 95 µM (inactive) | > 95 | > 95 |
| CCN(CCCNC(=O)CNC(=O)c1nn(-c2ccc(OC)cc2OC)c(=O)c2ccccc12)c1cccc(C)c1 | > 100 µM (inactive) | > 100 | > 95 µM (inactive) | > 95 | > 95 |
| Cc1nc(SCc2ccc(C(=O)O)cc2)nc2c1CCCC2 | > 100 µM (inactive) | > 100 | > 95 µM (inactive) | > 95 | > 95 |
| O=[N+]([O-])c1cc(-c2csc(NCCc3nc4cc(C(F)(F)F)ccc4n3CCCO)n2)ccc1Cl | > 100 µM (inactive) | > 100 | > 95 µM (inactive) | > 95 | > 95 |
| Nc1ccc(C(=O)Nc2ccc(Nc3ccncc3)cc2)c([N+](=O)[O-])c1 | 2.27 µM | 2.27 | > 95 µM (inactive) | > 95 | > 95 |
| Cc1cnc(C(=O)OCC(=O)Nc2sc3c(c2C#N)CCC3)cn1 | > 100 µM (inactive) | > 100 | > 95 µM (inactive) | > 95 | > 95 |
| COc1ccccc1N1CCN(C(=O)C2c3ccccc3Oc3ccccc32)CC1 | > 100 µM (inactive) | > 100 | > 95 µM (inactive) | > 95 | > 95 |

Results, then the compound that gave them:

| IC50 (AlphaScreen, mean of runs) | IC50 [1] [µM] | IC50 (FP, mean of runs) | IC50 [2] [µM] | IC50 [3] [µM] | SMILES |
| --- | --- | --- | --- | --- | --- |
| > 100 µM (inactive) | > 100 | > 95 µM (inactive) | > 95 | > 95 | CCOc1ccc(C2CC(c3ccc(CC)cc3)n3nc(N)nc3N2)cc1 (stereo not given) |
| > 100 µM (inactive) | > 100 | > 95 µM (inactive) | > 95 | > 95 | CCC1=C(OC(=O)N(CC)CC)N2C(=O)OC(=NCC3CC3)[C@]2(Cc2ccccc2)[C@H]2C1=CC[C@H]1C(=O)N(C)C(=O)[C@H]12 |
| inactive | 35.5 | > 95 µM (inactive) | > 95 | > 95 | COc1ccc(NC(=O)CN(C)CC(=O)Nc2cccc(F)c2)cc1Cl |
| > 100 µM (inactive) | > 100 | > 95 µM (inactive) | > 95 | > 95 | CCOC(=O)c1c2ccc(OCC(=O)NN)cc2n2ccccc12 |
| > 100 µM (inactive) | > 100 | > 95 µM (inactive) | > 95 | > 95 | CCOC(=O)c1ccc(N2CCN(C(=O)c3ccccc3)CC2)c(NC(=O)c2ccco2)c1 |
| inactive | 45.3 | > 95 µM (inactive) | > 95 | > 95 | O=C(NCCOC(=O)c1ccccc1)c1ccccc1 |
| 12.9 µM | 12.9 | > 95 µM (inactive) | > 95 | > 95 | CC1CCN(C(=O)c2[nH]cnc2C(=O)NCc2ccc(CNC(=O)OC(C)(C)C)cc2)CC1 |
| inactive | 45.2 | > 95 µM (inactive) | > 95 | > 95 | OCCNc1ncnc2ccc(Br)cc12 |
| > 100 µM (inactive) | > 100 | > 95 µM (inactive) | > 95 | > 95 | CC(C)COC(=O)C1C2C=CC3(CN(C(C)c4ccc(Br)cc4)C(=O)C13)O2 (stereo not given) |
